Some test systems named below: EKVX NSCLC; HL-60(TB) leukemia; HOP-92 NSCLC; M14 melanoma; NCI-H23 lung; SF-295 CNS; SW-620 colon; SK-MEL-28 melanoma.
What all share (assay): growth of human tumour cells (NCI), 48 h

SMILES strings stand for the structures.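 Cultured in 96-well plates, cells were exposed to test compound for 48 hours across five concentrations. TGI is the concentration that stops growth completely.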

For `CC1(C)CCc2cc3c(cc2O1)OCC1c2cc4c(cc2OC31)OCO4` (configuration not stated), the TGI with EKVX NSCLC, with HL-60(TB) leukemia, in the assay on HOP-92 NSCLC, with M14 melanoma, in the assay on NCI-H23 lung and in the assay on SF-295 CNS was > 100 µM each time. In addition, the TGI in the assay with SW-620 colon was > 100 µM.
With `COC(=O)C1=C(C(=O)OC)C23CC1C1C(C(=O)OC)=C(C(=O)OC)C12C1C=CC3C2C(=O)OC(=O)C21` (configuration not stated), the TGI in the assay with EKVX NSCLC, with HL-60(TB) leukemia, in the assay on HOP-92 NSCLC, with M14 melanoma, in the assay with NCI-H23 lung and with SF-295 CNS was > 100 µM in each case. Further, the TGI in the assay with SK-MEL-28 melanoma and in the assay on SW-620 colon was > 100 µM throughout.
Turning to `CC(=O)O[C@]1(C)OC(=O)[C@@H](C)N1[N+](=O)[O-]`, the TGI with EKVX NSCLC, in the assay with HL-60(TB) leukemia, with M14 melanoma, with NCI-H23 lung, with SF-295 CNS and in the assay on SK-MEL-28 melanoma was > 100 µM throughout. Further, the TGI in the assay with SW-620 colon was > 100 µM.
On to `O=C1c2ccccc2C(=O)c2c(NCCNCCO)ccc(O)c21`, for which the TGI in the assay on EKVX NSCLC was 14 µM; in the assay with HL-60(TB) leukemia, 8.77 µM; in the assay on HOP-92 NSCLC it was 13.4 µM; with M14 melanoma, 15.8 µM; in the assay on NCI-H23 lung it was 12 µM; in the assay on SF-295 CNS it was 15.8 µM. Moreover, the TGI in the assay with SK-MEL-28 melanoma worked out at 11.4 µM; in the assay on SW-620 colon it was 12.9 µM.
Regarding `NNC(=S)N/N=C(/C(=O)Nc1cc(Cl)ccc1Cl)C1C(=O)Nc2ccccc2S1=O` (configuration not stated), the TGI in the assay on EKVX NSCLC, in the assay on HL-60(TB) leukemia, in the assay with HOP-92 NSCLC, in the assay with M14 melanoma, with NCI-H23 lung and in the assay on SF-295 CNS was > 100 µM each time. Further, the TGI in the assay on SK-MEL-28 melanoma and with SW-620 colon was > 100 µM throughout.
As for `CCOC(=O)C1=C(O)CSC1=Nc1ccccc1`, the TGI with HL-60(TB) leukemia, in the assay on HOP-92 NSCLC, in the assay with M14 melanoma, in the assay with NCI-H23 lung, in the assay on SF-295 CNS and with SK-MEL-28 melanoma was > 100 µM throughout. Besides, the TGI in the assay with SW-620 colon was > 100 µM.
Take `O=c1cccccc1NCCCCCCNc1cccccc1=O`: the TGI in the assay with EKVX NSCLC, with HL-60(TB) leukemia, with M14 melanoma, in the assay with NCI-H23 lung, in the assay with SF-295 CNS and with SK-MEL-28 melanoma was > 100 µM in each case. The TGI with SW-620 colon is > 100 µM.
`COc1ccc2c(c1)[n+]([O-])c(-c1ccccc1)c(N)[n+]2[O-]`: the TGI was > 100 µM in the assay with EKVX NSCLC; > 100 µM in the assay with HL-60(TB) leukemia; 78.9 µM with M14 melanoma; 61.7 µM in the assay with NCI-H23 lung; > 100 µM in the assay with SF-295 CNS; 69.3 µM in the assay on SK-MEL-28 melanoma. Further, the TGI with SW-620 colon is > 100 µM.
As to `O=C1OCCC1C(O)C1c2ccccc2-c2ccccc21` (configuration not stated), the TGI in the assay with EKVX NSCLC, in the assay on HL-60(TB) leukemia, in the assay with HOP-92 NSCLC, in the assay with M14 melanoma, with NCI-H23 lung and in the assay on SF-295 CNS was > 100 µM throughout. The TGI with SK-MEL-28 melanoma and in the assay with SW-620 colon was > 100 µM throughout.
Consider `COc1ccc(C(=O)C(C(=O)C(=O)Nc2ccc(Cl)c(Cl)c2)c2ccc(OC)cc2)cc1` (configuration not stated), for which the TGI in the assay with EKVX NSCLC, in the assay on HL-60(TB) leukemia, in the assay on HOP-92 NSCLC, with M14 melanoma, with NCI-H23 lung and in the assay with SF-295 CNS was > 100 µM throughout. Also, the TGI in the assay with SK-MEL-28 melanoma and with SW-620 colon was > 100 µM each time.
`Cc1c(C(=O)C/C(=N/NC(=O)C[n+]2ccccc2)C(=O)Nc2ccccc2)[n+](=O)c2ccccc2n1O`: the TGI with EKVX NSCLC, with HL-60(TB) leukemia, in the assay with M14 melanoma, in the assay with NCI-H23 lung, in the assay on SF-295 CNS and in the assay on SK-MEL-28 melanoma was > 100 µM each time. In addition, the TGI with SW-620 colon was > 100 µM.
In the case of `COc1ccc(N=Nc2c(-c3ccccc3)nn(C(=O)CC(=O)Nc3cccc(Cl)c3)c2-c2ccccc2)cc1`, the TGI in the assay with EKVX NSCLC, in the assay on HL-60(TB) leukemia, in the assay with HOP-92 NSCLC, in the assay with NCI-H23 lung, in the assay with SF-295 CNS and with SK-MEL-28 melanoma was > 100 µM in each case. For the same compound, the TGI in the assay on SW-620 colon is > 100 µM.
As to `CC(C)(C)CC(C)(C)c1cc2c(O)c(c1)Cc1cc(C(C)(C)CC(C)(C)C)cc(c1O)Cc1cc(C(C)(C)CC(C)(C)C)cc(c1O)Cc1cc(C(C)(C)CC(C)(C)C)cc(c1O)Cc1cc(C(C)(C)CC(C)(C)C)cc(c1O)Cc1cc(C(C)(C)CC(C)(C)C)cc(c1O)C2`, the TGI in the assay on EKVX NSCLC, in the assay with HL-60(TB) leukemia, in the assay with HOP-92 NSCLC, with M14 melanoma, in the assay on NCI-H23 lung and with SF-295 CNS was > 100 µM throughout. Further, the TGI in the assay with SK-MEL-28 melanoma and in the assay with SW-620 colon was > 100 µM in each case.

(Values after PubChem BioAssay (NCI).)
